Like-named read-outs stand apart in the source and are kept apart here.
How the values were obtained:
[1] = test system: polyQ-expanded AR; assay: Transcriptional (ARE-luciferase) assay in HEK293T cells expressing polyQ-expanded AR; format: cell-based, human; conditions: AR65Q, DHT 10 nM, 16 h; for polyQ-expanded AR transactivation induced by DHT: mock-transfected, inhibitor 10 μM
Experimental: (§1) Cell Cultures, Transfection, and Transduction MN1^9 and HEK293T (ATCC) cells were cultured and plated in DMEM complete medium [Dulbecco's Modified Eagle Medium supplemented with 10% fetal bovine serum (FBS), 1% penicillin/streptomycin (pen/strep), and 1% L-glutamine] and LNCaP cells in RPMI complete medium (Gibco Roswell Park Memorial Institute supplemented with 10% FBS, 1% penicillin/streptomycin, and 1% L-glutamine). C2C12 cells were cultured and differentiated to myotubes. Cells were kept in a humidified incubator with 5% CO2 at 37° C. HEK293T cells were transfected with polyethyleneimine (PEI) linear MW 25,000 Da (Sigma-Aldrich) according to well dimensions. DNA: PEI (0.5% v/v) ratio was 1:1. At 24 hours after the transfection the DMEM complete medium supplemented with 10% FBS was changed with DMEM supplemented with charcoal stripped FBS and cells were treated with vehicle (ethanol) or 10 nM DHT and harvested for the different analysis 24 h after the treatment. For the pharmacological inhibition, we treated cells with the LSD1 catalytic inhibitor tranylcypromine (TCP) and the PRMT inhibitor adenosine dialdehyde (AdOx) both at a final concentration of 10 μM, instead for the selective LSD1 inhibitor SP-2509, we used it at a final concentration of 100 nm. MN-1 cells were transfected with Lipofectamine 2000 according to manufacturer instructions (Thermo Fisher). MN1 and LNCaP cells were transiently transduced with lentiviruses (MOI 30) or transfected with 2 μg DNA using Lipofectamine 2000 CD Transfection Reagent (ThermoFisher Scientific, 12566014). The following day, positively transfected cells were selected with […] Blasticidin (PanReacApplichem, A3784,0025). After 24 hours of selection or at 48 hours post-transduction, cells were induced with 10 nM dihydrotestosterone (DHT) in DMEM or RPMI medium supplemented with 10% charcoal-stripped FBS, 1% pen/strep, and 1% L-glutamine. The SBMA iPSCs were derived and differentiated. iPSCs were maintained on Matrigel (Corning, 354277) coated tissue culture dishes in E8 Flex medium (Thermo Fisher, A2858501). […]

[2] = test system: normal AR; assay: Transcriptional (ARE-luciferase) assay in HEK293T cells expressing normal AR; format: cell-based, human; conditions: AR24Q, mock-transfected, DHT 10 nM, 16 h, inhibitor 10 μM
Experimental: Cell Cultures, Transfection, and Transduction MN1^9 and HEK293T (ATCC) cells were cultured and plated in DMEM complete medium [Dulbecco's Modified Eagle Medium supplemented with 10% fetal bovine serum (FBS), 1% penicillin/streptomycin (pen/strep), and 1% L-glutamine] and LNCaP cells in RPMI complete medium (Gibco Roswell Park Memorial Institute supplemented with 10% FBS, 1% penicillin/streptomycin, and 1% L-glutamine). C2C12 cells were cultured and differentiated to myotubes. Cells were kept in a humidified incubator with 5% CO2 at 37° C. HEK293T cells were transfected with polyethyleneimine (PEI) linear MW 25,000 Da (Sigma-Aldrich) according to well dimensions. DNA: PEI (0.5% v/v) ratio was 1:1. At 24 hours after the transfection the DMEM complete medium supplemented with 10% FBS was changed with DMEM supplemented with charcoal stripped FBS and cells were treated with vehicle (ethanol) or 10 nM DHT and harvested for the different analysis 24 h after the treatment. […] MN-1 cells were transfected with Lipofectamine 2000 according to manufacturer instructions (Thermo Fisher). […] The following day, positively transfected cells were selected with […] Blasticidin (PanReacApplichem, A3784,0025). […]

[3] = test system: AR; assay: Transcriptional assay in HEK293T cells expressing AR24Q or AR65Q, with LSD1/PRMT6 overexpression or CRISPR silencing; format: cell-based, human; conditions: 16 h, inhibitor 10 μM; for effect of overexpression of LSD1 on AR transactivation: AR24Q and AR65Q with LSD1, DHT 10 nM; for effect of overexpression of PRMT6 on AR transactivation: AR24Q and AR65Q with PRMT6, DHT 10 nM
Experimental: Cell Cultures, Transfection, and Transduction MN1^9 and HEK293T (ATCC) cells were cultured and plated in DMEM complete medium [Dulbecco's Modified Eagle Medium supplemented with 10% fetal bovine serum (FBS), 1% penicillin/streptomycin (pen/strep), and 1% L-glutamine] and LNCaP cells in RPMI complete medium (Gibco Roswell Park Memorial Institute supplemented with 10% FBS, 1% penicillin/streptomycin, and 1% L-glutamine). C2C12 cells were cultured and differentiated to myotubes. Cells were kept in a humidified incubator with 5% CO2 at 37° C. HEK293T cells were transfected with polyethyleneimine (PEI) linear MW 25,000 Da (Sigma-Aldrich) according to well dimensions. DNA: PEI (0.5% v/v) ratio was 1:1. At 24 hours after the transfection the DMEM complete medium supplemented with 10% FBS was changed with DMEM supplemented with charcoal stripped FBS and cells were treated with vehicle (ethanol) or 10 nM DHT and harvested for the different analysis 24 h after the treatment. […] MN-1 cells were transfected with Lipofectamine 2000 according to manufacturer instructions (Thermo Fisher). […] The following day, positively transfected cells were selected with […] Blasticidin (PanReacApplichem, A3784,0025). After 24 hours of selection or at 48 hours post-transduction, cells were induced with 10 nM dihydrotestosterone (DHT) in DMEM or RPMI medium supplemented with 10% charcoal-stripped FBS, 1% pen/strep, and 1% L-glutamine. […] For differentiation stably transfected iPSCs were induced with Neural Induction Medium (NIM) containing […] doxycycline and 10 nM R1881. After 48 hours of doxycycline treatment, motor neurons were dissociated with accutase to single cells and re-plated on PDL/Laminin coated surfaces in Neural Differentiation Medium (NDM) containing […] doxycycline and 10 nM R1881. On day 4, half of the cell culture medium was removed and replaced by Neuron Medium (NM) containing 10 nM R1881.
Luciferase assays were performed. In brief, HEK293T cells were transfected with vectors expressing non-expanded and polyglutamine-expanded AR together with vectors expressing the luciferase reporter gene under the control of a canonical androgen responsive element (ARE-Luc). To normalize data for transfection efficiency, the cells express Renilla reporter gene under the control of the timidine kinase (TK-Ren) transfected with ARE-Luc in a ratio of 1:10. Cells are treated with vehicle and DHT for 16 h and then processed for luciferase assay, as manufacturer's instructions (Promega).

[4] = test system: AR100Q mice; conditions: three times a week, from week 4
Experimental: A randomized cohort of male transgenic AR100Q mice and WT siblings was assigned to either control or treated group.
Phenelzine was administered at a dose of 30 mg/Kg in drinking water; three times a week; TCP was administered at a dose of 6 mg/Kg intraperitoneal, three times a week.
Mice were randomized and the operators were blind for genotype and treatment. The phenotype was analyzed by looking at muscle strength with grip strength test.

[5] = target: AR24Q (human) (UniProt P10275); assay: cell-based or functional assay
[6] = target: AR65Q (human) (UniProt P10275); assay: cell-based or functional assay
[7] = test system: Lsd1; assay: Western blots of LSD1 in MN1 cells transfected with amiR vectors; format: cell-based, mouse
Experimental: as §1, with “L-glutamine.” for “L-glutamine. The SBMA iPSCs were derived and differentiated. iPSCs were maintained on Matrigel (Corning, 354277) coated tissue culture dishes in E8 Flex medium (Thermo Fisher, A2858501).”
(§2) The protein concentration was measured using the bicinchoninic acid (BCA) assay method (Pierce™ BCA® Protein Assay, Thermo Scientific). […]

[8] = test system: Prmt6; assay: Western blots of PRMT6 in MN1 cells transfected with amiR vectors; format: cell-based, mouse
Experimental: as §1, with “L-glutamine.” for “L-glutamine. The SBMA iPSCs were derived and differentiated. iPSCs were maintained on Matrigel (Corning, 354277) coated tissue culture dishes in E8 Flex medium (Thermo Fisher, A2858501).”
as §2

N[C@@H]1C[C@H]1c1ccccc1 (racemic) [TCP, tranylcypromine]
polyQ-expanded AR transactivation induced by DHT [1]: reduced
normal AR transactivation induced by DHT [2]: reduced
effect of overexpression of LSD1 on AR transactivation [3]: reduced
effect of overexpression of PRMT6 on AR transactivation [3]: attenuated
phenotype of AR100Q mice (grip strength normalized to body weight) ([4]; 6 mg/Kg intraperitoneal): ameliorated

Nc1ncnc2c1ncn2C(C=O)OC(C=O)CO (stereo not shown) [AdOx, adenosine dialdehyde]
polyQ-expanded AR transactivation induced by DHT [1]: reduced
normal AR transactivation induced by DHT [2]: reduced
effect of overexpression of LSD1 on AR transactivation [3]: reduced
effect of overexpression of PRMT6 on AR transactivation [3]: attenuated

NNCCc1ccccc1 [Phenelzine, phenelzine]
phenotype of AR100Q mice (grip strength normalized to body weight) ([4]; 30 mg/Kg in drinking water): ameliorated

C/C(=N\NC(=O)c1cccc(S(=O)(=O)N2CCOCC2)c1)c1cc(Cl)ccc1O [SP-2509]
polyQ-expanded AR transactivation ([1]; inhibitor 100 nM): did not modify

protein arginine methyltransferase 6 (PRMT6) (from UniProt Q96LA8 1-375)
AR transactivation (transcriptional assay, HEK293T cells) [5]: 3.1 fold
AR transactivation (transcriptional assay, HEK293T cells) [6]: 3.4 fold

B1: amiR-Lsd1 #1: artificial miRNA targeting mouse Lsd1, oligos SEQ ID NO: 153, 154 (nucleic acid)
chain 1: TGCTGTTTCTCTGTATTCTACCTTGGGTTTTGGCCACTGACTGACCCAAGGTAATACAGAGAAA
chain 2: CCTGTTTCTCTGTATTACCTTGGGTCAGTCAGTGGCCAAAACCCAAGGTAGAATACAGAGAAAC
modifications: expressed or natural sequence
silencing of Lsd1 expression [7]: 50%

B2: amiR-Prmt6 #6: artificial miRNA targeting mouse Prmt6, oligos SEQ ID NO: 149, 150 (nucleic acid)
chain 1: TGCTGAATCAGACCATGTTGCCTTTCGTTTTGGCCACTGACTGACGAAAGGCAATGGTCTGATT
chain 2: CCTGAATCAGACCATTGCCTTTCGTCAGTCAGTGGCCAAAACGAAAGGCAACATGGTCTGATTC
modifications: expressed or natural sequence
silencing of Prmt6 [8]: ~ 50%

B3: amiR-Lsd1 #2: artificial miRNA targeting mouse Lsd1, oligos SEQ ID NO: 155, 156 (nucleic acid)
chain 1: TGCTGTTTACTTGTTTGCTGACGACAGTTTTGGCCACTGACTGACTGTCGTCAAAACAAGTAAA
chain 2: CCTGTTTACTTGTTTTGACGACAGTCAGTCAGTGGCCAAAACTGTCGTCAGCAAACAAGTAAAC
modifications: expressed or natural sequence
silencing of Lsd1 expression [7]: 70%

B4: amiR-Prmt6 #7: artificial miRNA targeting mouse Prmt6, oligos SEQ ID NO: 151, 152 (nucleic acid)
chain 1: TGCTGTATTAGATTAGAGTGCTCGCGGTTTTGGCCACTGACTGACCGCGAGCACTAATCTAATA
chain 2: CCTGTATTAGATTAGTGCTCGCGGTCAGTCAGTGGCCAAAACCGCGAGCACTCTAATCTAATAC
modifications: expressed or natural sequence
silencing of Prmt6 [8]: ~ 50%

B5: amiR-Lsd1 #3: artificial miRNA targeting mouse Lsd1, oligos SEQ ID NO: 234, 235 (nucleic acid)
chain 1: TGCTGTTGATGAGAGGTATACATCACGTTTTGGCCACTGACTGACGTGATGTACCTCTCATCAA
chain 2: CCTGTTGATGAGAGGTACATCACGTCAGTCAGTGGCCAAAACGTGATGTATACCTCTCATCAAC
modifications: expressed or natural sequence
silencing of Lsd1 expression [7]: 70%

B6: amiR-Prmt6 #2: artificial miRNA targeting mouse Prmt6, oligos SEQ ID NO: 141, 142 (nucleic acid)
chain 1: TGCTGCGGAGTAGCACTCGTAGTACAGTTTTGGCCACTGACTGACTGTACTACGTGCTACTCCG
chain 2: CCTGCGGAGTAGCACGTAGTACAGTCAGTCAGTGGCCAAAACTGTACTACGAGTGCTACTCCGC
modifications: expressed or natural sequence
silencing of Prmt6 [8]: ~ 50%
